Reference: US11932657B2, “Heterocyclic compound” (priority 2018, dated 2024)

Assays:
[1] = tested on: immortalized megakaryocyte line (SeV2-MKCL); experiment: Platelet production: static culturing of immortalized megakaryocyte line; format: cell-based; settings: compound final concentration 0.1 μM, static culturing 6 to 7 days, control (DMSO) set to 1; platelets = CD41, CD42b and CD42a-positive cells
Procedure: Test Example 2 (Platelet Production: Static Culturing)
The immortalized megakaryocyte line (SeV2-MKCL) obtained according to the method described in WO 2016/204256 was washed twice with D-PBS(−) and then cultured in medium not containing doxycycline to terminate forced expression. Culturing was implemented by seeding the cells at 1 mL/well in a 24-well plate (#662160 (Greiner Rio-One)) at a seeding density of 1×10^5 cells/mL followed by static culturing in the medium indicated below.
The medium was obtained by adding the following components to IMDM serving as the basal medium (concentrations indicate final concentrations).
Culturing was implemented under conditions of 37° C. and 5% CO2. At the same time, the compound of the present invention (final concentration 0.1 μM) or DMSO (control) was added and cultured for 6 to 7 days. Thereafter, the number of platelets (CD41, CD42b, and CD42a-positive cells) was measured. The measurement method was as shown below. The same procedure was performed with the control.
A portion of the culture supernatant was harvested 6 to 7 days after culturing to terminate gene expression, and suspended with the following antibodies to stain them. eFluor 450-labeled anti-CD42a antibody (#48-0428-42 (eBioscience)) PE-labeled anti-CD42b antibody (#303906 (BioLegend)) APC-labeled anti-CD41 antibody (#303710 (BioLegend)) The number of platelets was counted using FACSVerse manufactured by BD 30 minutes after the stain reaction. In the measurement of the number of platelets, the number of cells was corrected using Flow-count beads (#7547053 (Beckman Coulter)).
The number of platelets produced from one megakaryocyte cell was calculated based on the number of platelets in the sample obtained by the FACS measurement, and the result was defined as platelet production efficiency (PLT/MK) and used for evaluation of drug efficacy of the compound. In addition, the specific activity at the time when the platelet production efficiency of the control was set to 1 was indicated as fold increase.

[2] = target: T1, aryl hydrocarbon receptor (AhR) (Homo sapiens, UniProt P35869); experiment: AhR reporter gene assay (aryl hydrocarbon receptor antagonist activity, DRE-Luc HepG2 cells, TCDD-stimulated luciferase); format: cell-based
T1 construct: DRE-Luc HepG2 cells subcultured in a 225 cm^2 flask; endogenous in cells; host or cells: HepG2 (ATCC), stably transfected with the reporter hCYP1A1/pGL4.27 (DRE-Luc HepG2)
T1 sequence (P35869 11-848): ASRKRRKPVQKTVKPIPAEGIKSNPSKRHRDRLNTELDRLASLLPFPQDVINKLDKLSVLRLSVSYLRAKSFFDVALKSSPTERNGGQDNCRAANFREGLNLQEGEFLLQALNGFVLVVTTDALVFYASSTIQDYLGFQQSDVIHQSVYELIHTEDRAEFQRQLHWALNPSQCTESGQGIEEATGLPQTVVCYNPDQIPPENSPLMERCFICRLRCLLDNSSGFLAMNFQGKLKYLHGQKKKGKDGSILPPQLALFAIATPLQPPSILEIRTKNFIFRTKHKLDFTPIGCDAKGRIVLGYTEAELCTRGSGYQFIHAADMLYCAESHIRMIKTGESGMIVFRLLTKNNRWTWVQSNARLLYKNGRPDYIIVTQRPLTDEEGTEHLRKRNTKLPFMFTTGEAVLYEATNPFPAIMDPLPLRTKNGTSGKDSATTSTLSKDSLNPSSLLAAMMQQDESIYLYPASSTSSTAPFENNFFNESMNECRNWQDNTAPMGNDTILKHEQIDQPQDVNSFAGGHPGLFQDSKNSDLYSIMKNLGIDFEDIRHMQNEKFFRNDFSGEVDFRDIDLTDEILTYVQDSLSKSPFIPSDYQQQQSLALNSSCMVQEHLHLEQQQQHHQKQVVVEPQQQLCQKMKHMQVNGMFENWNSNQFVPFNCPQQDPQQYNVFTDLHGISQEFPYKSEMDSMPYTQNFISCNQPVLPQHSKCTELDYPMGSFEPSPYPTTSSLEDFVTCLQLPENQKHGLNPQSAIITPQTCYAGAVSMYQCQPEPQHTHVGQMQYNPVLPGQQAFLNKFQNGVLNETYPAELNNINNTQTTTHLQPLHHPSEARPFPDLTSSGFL
Procedure: Test Example 1 (Aryl Hydrocarbon Receptor Antagonist Activity)
An expression vector, hCYP1A1/pGL4.27 was introduced into HepG2 cells (derived from American Type Culture Collection (ATCC)) that were seeded in 6-well plates (#3810-006 (Iwaki)) at 1.2×10^6 cells/well, using Lipofectamine 3000 (#100022050 (Invitrogen)). Referring to Garrion P M et al., Fundam Appl Toxicol, 30, 194 (1996), the vector hCYP1A1/pGL4.27 incorporated the human CYP1A1 promotor region including dioxin responsive element (DRE) region of the AhR binding region into the XhoI-BglII restriction enzyme site of pGL4.27 (#E8451 (Promega)). After 24 hours, medium-1 was replaced, and after 48 hours, the medium-1 containing hygromycin B (200 to 1000 μg/mL) was subjected to drug treatment. Culturing using the medium containing hygromycin B was continued for about 1 month to clone 24 clones showing drug resistance. A cell line showing high reporter activity was selected (DRE-Luc HepG2) from drug resistant lines using as an indicator luciferase activity (Dual-Glo Luciferase substrate, #E297A (Promega)) relative to an AhR agonist, 2,3,7,8-tetrachlorodibenzo-p-dioxin (TCDD) (#ED-901-B (CIL.)).
DRE-Luc HepG2 cells subcultured in a 225 cm^2 flask (#11-0005 (Iwaki)) were washed with PBS (#1419-144 (Gibco), Lot: 1896207), and thereto was added 8 mL of Trypsin-EDTA (0.05%) (#25300-054 (Gibco)). Thereafter, an excessive liquid was removed from the mixture, and the cells were stood at room temperature for 5 minutes. Thereto was added 10 mL of medium-2, the cells were recovered through a cell strainer (#352350 (Falcon), 70 μm), and the number of cells were then counted using a hemocytometer. A cell suspension was prepared at 3×10^5 cells/mL, 100 μL/well of the cell suspension was seeded into a 96-well white plate (#136101, F96 Microwell (Nunc)), and the cells were then cultured in a CO2 incubator (5% CO2, 37° C.). After 24 hours, the medium was aspirated, and thereto was added 100 μL of an assay medium solution including the compound of the present invention, and the cells were cultured in the CO2 incubator (5% CO2, 37° C.). After 24 hours, 11 μL of an assay medium solution including 5×10^−10 M TCDD (#ED-901-B (CIL.)) was added thereto and the cells were cultured in the CO2 incubator (5% CO2, 37° C.). After 24 hours, 50 μL of a reaction substrate (#E253B, Steady-Glo Luciferase substrate (Promega)) for Firefly Luciferase enzyme reaction was added to each well, and after 5 minute-shaking, the light emission intensity was measured with Wallac ARVO 1420sx (PerkinElmer).

`CC1(C)COc2nc3c(NCCc4ccc(O)c(-c5cccc(C#N)c5F)c4)nc(-c4cncc(C#N)c4)nc3n21` [Example 67] was tested, and the “Static (vs veh): fold increase of platelet production efficiency (PLT/MK)” value (“Static (vs veh): fold increase” for short) [1] was 2.9 and the IC50 [2] was 2.4 nM.
`CC1(C)COc2nc3c(NCCc4c[nH]c5ccccc45)nc(-c4ccc5nccn5c4)nc3n21` [Example 110] was tested, and the “Static (vs veh): fold increase” value [1] was 6.1 and the IC50 [2] was 40 nM.
For `CC1(C)COc2nc3c(NCCc4ccc(O)c(-c5ccccc5F)c4)nc(-c4cncc(F)c4)nc3n21` [Example 2, 2-(2-fluorophenyl)-4-[2-[[2-(5-fluoropyridin-3-yl)-8,8-dimethyl-7H-purino[8,9-b][1,3]oxazol-4-yl]amino]ethyl]phenol], the “Static (vs veh): fold increase” value [1] was 5.6 and the IC50 [2] was 9.5 nM.
In the case of `CC1(C)COc2nc3c(NCCc4ccc(O)c(-c5cc(F)cc(C#N)c5)c4)nc(-c4cncc(F)c4)nc3n21` [Example 56], the “Static (vs veh): fold increase” value [1] is reported as 6.5 and the IC50 [2] is reported as 13 nM.
For `Cc1cncc(-c2cc(CCNc3nc(-c4cncc(F)c4)nc4c3nc3n4C(C)(C)CS3)ccc2O)c1` [Example 73], the “Static (vs veh): fold increase” value [1] was 7.9 and the IC50 [2] was 7.3 nM.
For `CCc1cccc(-c2cc(CCNc3nc(-c4cncc(F)c4)nc4c3nc3n4C(C)(C)CO3)ccc2O)c1` [Example 15], the “Static (vs veh): fold increase” value [1] was 11 and the IC50 [2] was 5.5 nM.
For `CC1(C)COc2nc3c(NCCc4ccc(O)c(-c5cc(F)ccc5F)c4)nc(-c4cncc(F)c4)nc3n21` [Example 10], the “Static (vs veh): fold increase” value [1] was 5.5 and the IC50 [2] was 11 nM.
For `CC1(C)COc2nc3c(NCCc4c[nH]c5ccccc45)nc(-c4ccc5ncnn5c4)nc3n21` [Example 111], the “Static (vs veh): fold increase” value [1] was 7.0 and the IC50 [2] was 40 nM.
For `CC1(C)COc2nc3c(NCCc4ccc(O)c(-c5cccc(C#N)c5F)c4)nc(-c4cncc(F)c4)nc3n21` [Example 55], the “Static (vs veh): fold increase” value [1] was 6.8 and the IC50 [2] was 1.2 nM.
In the case of `CC1(C)COc2nc3c(NCCc4ccc(O)c(-c5cccc(C#N)c5)c4)nc(-c4cncc(C#N)c4)nc3n21` [Example 59], the “Static (vs veh): fold increase” value [1] is reported as 5.7 and the IC50 [2] is reported as 2.5 nM.
With `CC1(C)COc2nc3c(NCCc4ccc(O)c(-c5cccc(Cl)c5)c4)nc(-c4cncc(F)c4)nc3n21` [Example 6] the “Static (vs veh): fold increase” value [1] was 3.7 and the IC50 [2] was 10 nM.
`CC1(C)COc2nc3c(NCCc4ccc(O)c(-c5ccc(Cl)cc5)c4)nc(-c4cncc(F)c4)nc3n21` [Example 7] was tested, and the “Static (vs veh): fold increase” value [1] was 7.3 and the IC50 [2] was 9.1 nM.
`CC1(C)CSc2nc3c(NCCc4ccc(O)c(-c5ccccc5F)c4)nc(-c4cncc(F)c4)nc3n21` [Example 8] was tested, and the “Static (vs veh): fold increase” value [1] was 5.1 and the IC50 [2] was 0.11 nM.
`Cc1cncc(-c2cc(CCNc3nc(-c4cncc(F)c4)nc4c3nc3n4C(C)(C)CO3)ccc2O)c1` [Example 72] was tested, and the “Static (vs veh): fold increase” value [1] was 6.8 and the IC50 [2] was 9.8 nM.
`CC1(C)CSc2nc3c(NCCc4ccc(O)c(-c5cccc(F)c5)c4)nc(-c4ccc5nccn5c4)nc3n21` [Example 53] was tested, and the “Static (vs veh): fold increase” value [1] was 5.3 and the IC50 [2] was 1.2 nM.
`CC1(C)COc2nc3c(NCCc4ccc(O)c(-c5csc6ccccc56)c4)nc(-c4cncc(F)c4)nc3n21` [Example 35] was tested, and the “Static (vs veh): fold increase” value [1] was 6.0 and the IC50 [2] was 12 nM.
In the case of `CC1(C)COc2nc3c(NCCc4ccc(O)c(-c5cccc(F)c5)c4)nc(-c4cncc(C#N)c4)nc3n21` [Example 36], the “Static (vs veh): fold increase” value [1] is reported as 2.7 and the IC50 [2] is reported as 0.7 nM.
For `Cc1cncc(-c2cc(CCNc3nc(-c4cncc(F)c4)nc4c3nc3n4[C@H](C)CS3)ccc2O)c1` [Example 74], the “Static (vs veh): fold increase” value [1] was 3.5 and the IC50 [2] was 4.7 nM.
For `CC1(C)COc2nc3c(NCCc4ccc(O)c(-c5ccccc5Cl)c4)nc(-c4cncc(F)c4)nc3n21` [Example 5], the “Static (vs veh): fold increase” value [1] was 5.1 and the IC50 [2] was 36 nM.
For `COc1cccc(-c2cc(CCNc3nc(-c4cncc(F)c4)nc4c3nc3n4C(C)(C)CO3)ccc2O)c1` [Example 13, 4-[2-[[2-(5-fluoropyridin-3-yl)-8,8-dimethyl-7H-purino[8,9-b][1,3]oxazol-4-yl]amino]ethyl]-2-(3-methoxyphenyl)phenol], the “Static (vs veh): fold increase” value [1] was 4.7 and the IC50 [2] was 29 nM.
With `CC1(C)CSc2nc3c(NCCc4ccc(O)c(-c5cccc(F)c5)c4)nc(-c4cncc(C#N)c4)nc3n21` [Example 37] the “Static (vs veh): fold increase” value [1] was 2.1 and the IC50 [2] was 0.53 nM.
`COc1ccccc1-c1cc(CCNc2nc(-c3cncc(F)c3)nc3c2nc2n3C(C)(C)CO2)ccc1O` [Example 41] was tested, and the “Static (vs veh): fold increase” value [1] was 7.0 and the IC50 [2] was 10 nM.
With `CC1(C)COc2nc3c(NCCc4c[nH]c5ccccc45)nc(-c4cccnc4)nc3n21` [Example 94] the “Static (vs veh): fold increase” value [1] was 2.6 and the IC50 [2] was 39 nM.
With `CC1(C)COc2nc3c(NCCc4ccc(O)c(-c5cccc(C#N)c5)c4)nc(-c4cncc(C(F)F)c4)nc3n21` [Example 62, 3-[5-[2-[[2-[5-(difluoromethyl)pyridin-3-yl]-8,8-dimethyl-7H-purino[8,9-b][1,3]oxazol-4-yl]amino]ethyl]-2-hydroxyphenyl]benzonitrile] the “Static (vs veh): fold increase” value [1] was 5.1 and the IC50 [2] was 1.9 nM.
`CC1(C)C[S+]([O-])c2nc3c(NCCc4ccc(O)c(-c5cccc(F)c5)c4)nc(-c4cncc(F)c4)nc3n21` (centres unmarked) [Example 21] was tested, and the “Static (vs veh): fold increase” value [1] was 4.7 and the IC50 [2] was 0.033 nM.
